# Data reported in patent publication EP4775575A1, “COMPOUND USED AS CDK4 KINASE INHIBITOR AND USE THEREOF” (TYK Medicines, Inc., priority 2023, dated 2025).
# Columns and labels:
# [1] = Preclinical pharmacokinetic study in rats; format: in vivo, Sprague-Dawley (SD) rats; conditions: male SD rats, oral gavage (p.o.) 10 mg/kg, plasma; for AUC(0-t) / Cmax / Tmax: Sprague-Dawley, rat
# Method: Healthy adult Sprague-Dawley (SD) rats, male, 6-8 weeks old, weighing 200-300 g. EDTA-Na2 anticoagulant. Analytical balance, animal weighing scale, magnetic stirrer, refrigerated centrifuge, single-channel manual pipette, etc. About 10 mg of the test sample was precisely weighed, dissolved in a calculated volume of 5% DMSO, followed by addition of 10% solutol HS-15 and 85% normal saline. The mixture was sonicated and vortexed to homogeneity to obtain a solution with a concentration of 1 mg/mL. The solution was freshly prepared before use. Animals were housed in rat cages and fasted overnight (no less than 10 h) before the test, with free access to water. On the day of the test, animals were weighed and marked on the tail. Blank blood samples were collected before administration. The blood was collected via tail vein. • Route of administration: oral gavage (p.o.) • Dose: 10 mg/kg • Dosing volume: 10 mL/kg • Procedure: The rat was held upright with the left hand wearing bite-resistant glove. A 16-gauge gavage needle was inserted through the mouth into the esophagus. The needle was advanced gently without obvious resistance, and the drug solution was injected into the stomach. Whole blood (0.1 mL) were collected from each test animal before administration and at 0.5 […], and 24 h after administration into EDTA-Na2 anticoagulant tubes. The tubes were inverted 3-4 times for mixing, then centrifuged at 10,000 g for 5 min at 4 °C to separate plasma. Plasma samples were stored at -80 °C until analysis. Blood was collected via tail vein. […] The mixture was vortexed for 2 min and centrifuged at 10,000 g for 10 min at 4 °C. Processing of unknown plasma samples: 25 μL of drug-containing rat plasma was transferred, followed by addition of 25 μL of methanol and 200 μL of internal standard solution. The mixture was vortexed for 2 min and centrifuged at 10,000 g for 10 min at 4 °C. The supernatant was collected for LC-MS/MS analysis. A quantitative method for the determination of the test compound was established using a Shimadzu liquid chromatography system coupled with Triple Quad^TM 6500+ AB mass spectrometer. The concentration of the parent drug in plasma was determined. The plasma concentration-time curve was plotted, and the main pharmacokinetic parameters were calculated using a non-compartmental model in winnonlin Phoenix software.
# [2] = test system: human ovarian cancer cells A2780; test: Cell anti-proliferation assay (MTT), A2780; format: cell-based; conditions: Homo sapiens, 120 h, incubated for 5 days
# Method in brief: (§1)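 Cells in DMEM with 10% FBS were seeded at 50,000 cells/mL and grown overnight at 37 °C, 5% CO2, then treated at 9 concentrations (3-fold serial dilution, 0.1% DMSO medium). MTT was added for 3 h, formazan dissolved in acidified isopropanol/NP-40, and absorbance read at 570 nm.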
# [3] = test system: Human breast cancer cells MCF-7; test: Cell anti-proliferation assay (MTT), MCF-7; format: cell-based; conditions: Homo sapiens, MCF7, 120 h, MCF-7 cells, incubated for 5 days
# Method in brief: as §1
# [4] = test system: human mantle cell lymphoma cells JEKO-1; test: Cell anti-proliferation assay (MTT), JEKO-1; format: cell-based; conditions: Homo sapiens, 120 h, JEKO-1 cells, incubated for 5 days
# Method in brief: as §1
# CDK6/CyclinD3 = molecular target: T1, CDK6/CyclinD3 (Homo sapiens, UniProt Q00534); test: Kinase activity assay (MSA, EZ Reader) against CDK6; format: biochemical; conditions: CDK6/CyclinD3 5.00 nM, ATP 350 µM, FL-Peptide34, 10mM MgCl2
# T1 construct: purchased Carna 04-107
# T1 sequence (Q00534 whole entry): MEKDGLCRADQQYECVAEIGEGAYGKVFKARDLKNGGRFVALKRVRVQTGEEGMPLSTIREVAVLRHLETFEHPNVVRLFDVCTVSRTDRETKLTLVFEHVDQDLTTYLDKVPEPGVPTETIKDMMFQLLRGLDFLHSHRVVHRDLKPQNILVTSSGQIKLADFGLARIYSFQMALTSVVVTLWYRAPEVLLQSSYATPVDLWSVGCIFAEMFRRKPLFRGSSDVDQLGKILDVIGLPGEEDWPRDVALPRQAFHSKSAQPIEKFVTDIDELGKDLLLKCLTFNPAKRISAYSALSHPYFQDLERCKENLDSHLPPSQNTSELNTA
# T1 sequence (P30281 whole entry partner): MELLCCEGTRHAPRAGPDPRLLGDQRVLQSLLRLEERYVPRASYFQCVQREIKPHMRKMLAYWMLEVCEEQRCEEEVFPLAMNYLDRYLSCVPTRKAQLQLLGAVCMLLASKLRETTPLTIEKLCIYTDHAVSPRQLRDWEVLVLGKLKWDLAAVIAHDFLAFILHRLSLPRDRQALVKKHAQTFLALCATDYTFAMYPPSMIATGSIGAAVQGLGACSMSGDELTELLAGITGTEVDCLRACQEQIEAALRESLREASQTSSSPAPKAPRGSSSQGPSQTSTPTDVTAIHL
# CDK4/CycD1 = CDK4/CycD1 (Homo sapiens, UniProt P11802); test: Kinase activity assay (MSA, EZ Reader) against CDK4
# CDK4/CycD1, sequence (P11802 whole entry): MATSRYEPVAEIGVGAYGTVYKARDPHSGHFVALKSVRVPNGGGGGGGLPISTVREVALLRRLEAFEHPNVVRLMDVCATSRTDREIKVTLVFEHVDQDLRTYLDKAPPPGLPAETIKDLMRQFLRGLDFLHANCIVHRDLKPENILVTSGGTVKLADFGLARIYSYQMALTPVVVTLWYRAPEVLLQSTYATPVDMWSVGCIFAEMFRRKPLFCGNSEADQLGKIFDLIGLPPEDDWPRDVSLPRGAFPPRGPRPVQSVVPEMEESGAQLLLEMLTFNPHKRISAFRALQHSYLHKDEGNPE
Compound,AUC(0-t) [1],Cmax [1],Tmax [1],HL_ [1],IC50 [2],IC50 [3],IC50 [4],IC50 (CDK6/CyclinD3),IC50 (CDK4/CycD1)
C[C@H]1CCN(c2ccccc2F)c2nc3c(F)cc(-c4nc(N[C@@H]5CCOC[C@H]5O)ncc4Cl)cc3n21 [TC-12],1290 ng·h/mL,417 ng/mL,1 h,2.55 h,≤ 500 nM,≤ 500 nM,≤ 500 nM,45.7 nM,1.9 nM
C[C@H]1CCN(c2ccccc2)c2nc3c(F)cc(-c4nc(N[C@@H]5CCOC[C@H]5O)ncc4Cl)cc3n21 [TA-33],2170 ng·h/mL,262 ng/mL,4.67 h,–,–,–,–,94.2 nM,3.4 nM
C[C@H]1CCN(C)c2nc3c(F)cc(-c4cc(N[C@@H]5CCOC[C@H]5O)ncc4Cl)cc3n21 [TB-149],25400 ng·h/mL,4160 ng/mL,1.17 h,1.99 h,≤ 500 nM,≤ 500 nM,≤ 500 nM,90.8 nM,5.3 nM
CCS(=O)(=O)N1CCC(Nc2ncc(Cl)c(-c3cc(F)c4nc(N5CCOC5=O)n(C(C)C)c4c3)n2)CC1 [TB-31],4890 ng·h/mL,923 ng/mL,4 h,1.34 h,≤ 500 nM,≤ 500 nM,≤ 500 nM,182 nM,15.3 nM
"C[C@H]1CCN(C)c2nc3c(F)cc(-c4nc(Nc5ccncc5)ncc4Cl)cc3n21 [TB-137, (S)-5-chloro-4-(9-fluoro-1,4-dimethyl-1,2,3,4-tetrahydrobenzo[4,5]imidazo[1,2-a]pyrimidin-7-yl)-N-(pyridin-4-yl)pyrimidin-2-amine]",3670 ng·h/mL,1240 ng/mL,0.83 h,4.10 h,≤ 500 nM,≤ 500 nM,≤ 500 nM,175 nM,28.3 nM
C[C@H]1CCN(CC#N)c2nc3c(F)cc(-c4nc(N[C@@H]5CCOC[C@H]5O)ncc4Cl)cc3n21 [TC-2],1240 ng·h/mL,400 ng/mL,0.67 h,2.87 h,≤ 500 nM,500 to 2000 nM,≤ 500 nM,75.7 nM,4.5 nM
C[C@H]1CCN(C2CC2)c2nc3c(F)cc(-c4nc(N[C@@H]5CCOC[C@H]5O)ncc4Cl)cc3n21 [TA-4],16200 ng·h/mL,4430 ng/mL,1 h,3.19 h,≤ 500 nM,≤ 500 nM,≤ 500 nM,63.9 nM,4.4 nM
"CC(C)n1c(N2CCOCC2)nc2c(F)cc(-c3nc(N[C@@H]4CCOC[C@H]4O)ncc3Cl)cc21 [TB-12, (3S,4R)-4-((5-chloro-4-(4-fluoro-1-isopropyl-2-morpholino-1H-benzo[d]imidazol-6-yl)pyrimidin-2-yl)amino)tetrahydro-2H-pyran-3-ol]",4500 ng·h/mL,677 ng/mL,1.5 h,3.14 h,≤ 500 nM,≤ 500 nM,≤ 500 nM,151 nM,6.01 nM
CC(C)n1c(N2CCOC2=O)nc2c(F)cc(-c3nc(N[C@@H]4CCOC[C@H]4O)ncc3Cl)cc21 [TB-24],4500 ng·h/mL,677 ng/mL,1.67 h,3.14 h,≤ 500 nM,≤ 500 nM,≤ 500 nM,143 nM,10.1 nM
